Experimental data: article PMC5513037, “Examining the influence of specificity ligands and ATP-competitive ligands on the overall effectiveness of bivalent kinase inhibitors” (Proteome Science, 2017)

How the values were obtained:
MAP4K3 = target: T1, MAP4K3 (Homo sapiens, UniProt Q8IVH8); test: KAM-matrix competition in K562 lysate; type: binding
T1 construct: endogenous in cells; host or cells: K562
T1 sequence (Q8IVH8 1-894): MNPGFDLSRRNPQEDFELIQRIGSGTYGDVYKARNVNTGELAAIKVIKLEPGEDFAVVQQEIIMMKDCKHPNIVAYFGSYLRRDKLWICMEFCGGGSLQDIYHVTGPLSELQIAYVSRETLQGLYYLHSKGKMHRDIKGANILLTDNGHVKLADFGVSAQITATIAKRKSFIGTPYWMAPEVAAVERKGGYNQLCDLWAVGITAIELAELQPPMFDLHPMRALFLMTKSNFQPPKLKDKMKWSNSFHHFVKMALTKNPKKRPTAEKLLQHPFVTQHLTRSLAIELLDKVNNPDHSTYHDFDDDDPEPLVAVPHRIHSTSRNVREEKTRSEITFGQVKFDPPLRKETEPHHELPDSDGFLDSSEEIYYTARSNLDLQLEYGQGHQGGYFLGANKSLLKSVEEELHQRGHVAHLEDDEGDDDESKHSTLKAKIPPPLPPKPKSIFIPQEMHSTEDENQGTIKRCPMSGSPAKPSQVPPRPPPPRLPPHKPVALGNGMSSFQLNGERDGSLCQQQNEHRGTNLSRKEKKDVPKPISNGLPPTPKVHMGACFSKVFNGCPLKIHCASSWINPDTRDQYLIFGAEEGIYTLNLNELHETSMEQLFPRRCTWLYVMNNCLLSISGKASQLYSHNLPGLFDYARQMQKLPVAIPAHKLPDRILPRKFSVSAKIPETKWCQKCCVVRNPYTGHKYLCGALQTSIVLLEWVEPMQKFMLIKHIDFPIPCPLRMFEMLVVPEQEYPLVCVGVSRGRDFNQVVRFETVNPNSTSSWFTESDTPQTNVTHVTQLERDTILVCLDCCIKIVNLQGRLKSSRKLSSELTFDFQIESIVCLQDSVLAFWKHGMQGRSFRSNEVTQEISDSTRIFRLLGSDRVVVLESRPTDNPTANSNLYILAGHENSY
Experimental: (§1) Supplement 12953_2017_125_MOESM1_ESM.zip/MS_Supp Info.xlsx, sheet "KAM" | column: 10 uM KAM; 1 uM KAM; 0.1 uM KAM; 0.01 uM KAM; 0.001 uM KAM; RB50

LATS2 = target: T2, LATS2 (Homo sapiens, UniProt Q9NRM7); test: KAM-matrix competition in K562 lysate; type: binding
T2 construct: endogenous in cells; host or cells: K562
T2 sequence (Q9NRM7 1-1088): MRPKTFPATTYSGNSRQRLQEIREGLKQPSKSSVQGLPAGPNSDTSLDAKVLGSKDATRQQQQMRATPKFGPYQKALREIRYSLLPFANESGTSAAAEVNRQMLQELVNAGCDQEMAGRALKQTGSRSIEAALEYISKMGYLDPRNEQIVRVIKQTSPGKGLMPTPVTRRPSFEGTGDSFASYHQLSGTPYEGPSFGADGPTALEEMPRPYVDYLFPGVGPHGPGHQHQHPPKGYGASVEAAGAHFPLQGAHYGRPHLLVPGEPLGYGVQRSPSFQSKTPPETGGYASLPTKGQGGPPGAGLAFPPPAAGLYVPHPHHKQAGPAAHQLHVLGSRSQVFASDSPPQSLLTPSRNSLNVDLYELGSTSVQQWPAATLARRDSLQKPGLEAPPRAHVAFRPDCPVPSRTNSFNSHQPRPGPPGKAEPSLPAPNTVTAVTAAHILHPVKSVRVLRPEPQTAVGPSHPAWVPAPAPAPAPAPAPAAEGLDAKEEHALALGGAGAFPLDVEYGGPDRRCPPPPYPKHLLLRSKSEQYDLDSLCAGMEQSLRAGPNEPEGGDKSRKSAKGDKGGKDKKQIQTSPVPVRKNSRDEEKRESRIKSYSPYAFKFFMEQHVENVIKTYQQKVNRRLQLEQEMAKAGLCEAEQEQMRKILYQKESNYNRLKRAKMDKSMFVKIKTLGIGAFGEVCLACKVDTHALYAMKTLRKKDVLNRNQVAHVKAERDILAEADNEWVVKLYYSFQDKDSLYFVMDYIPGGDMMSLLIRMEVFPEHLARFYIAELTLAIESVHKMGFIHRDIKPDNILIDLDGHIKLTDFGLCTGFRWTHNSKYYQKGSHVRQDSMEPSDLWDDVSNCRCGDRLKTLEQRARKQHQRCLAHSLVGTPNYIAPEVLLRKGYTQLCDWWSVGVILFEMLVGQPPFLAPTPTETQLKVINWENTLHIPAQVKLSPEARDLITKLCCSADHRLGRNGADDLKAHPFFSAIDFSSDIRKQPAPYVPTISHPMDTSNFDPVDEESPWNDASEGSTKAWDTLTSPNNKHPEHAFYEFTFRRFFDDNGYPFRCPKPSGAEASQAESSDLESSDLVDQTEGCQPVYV
Experimental: as §1

[1] = read-out: RB50 (the source's name)

## N#CCc1ccc(Nc2nc(NCCCN)cc(Nc3cc(C4CC4)[nH]n3)n2)cc1 [KAM]
MAP4K3; 0.001 uM KAM
  median Log10 fold change: -0.00532
MAP4K3; 0.01 uM KAM
  median Log10 fold change: -0.01342
MAP4K3; 0.1 uM KAM
  median Log10 fold change: -0.1612
MAP4K3; 1 uM KAM
  median Log10 fold change: -0.436
MAP4K3; 10 uM KAM
  median Log10 fold change: -0.5629
MAP4K3; [1]
  IC50: 472 nM
LATS2; 0.001 uM KAM
  median Log10 fold change: 0.01099
LATS2; 0.01 uM KAM
  median Log10 fold change: -0.05599
LATS2; 0.1 uM KAM
  median Log10 fold change: -0.2153
LATS2; 1 uM KAM
  median Log10 fold change: -0.4993
LATS2; 10 uM KAM
  median Log10 fold change: -0.5621
LATS2; [1]
  IC50: 251 nM
